In PMC4717260, “2-(2,4-Dioxy-1,2,3,4-Tetrahydropyrimidin-1-yl)-N-(4-Phenoxyphenyl)-Acetamides as a Novel Class of Cytomegalovirus Replication Inhibitors” (Acta Naturae, 2015):
Like-named read-outs stand apart in the source and are kept apart here. Values belong to the compound of their own block, whether it stands above or below them.

Legend:
[1] = system: CMV (AD-169 and Davis strains); assay: Anti-CMV activity in HEL cell culture; type: cell-based, human cytomegalovirus; settings: read-out: EC50, inhibition of CMV replication
VZV (Oka strain) = assay: microbe, parasite or virus in culture; type: cell-based, varicella zoster virus; settings: read-out: EC50, VZV replication (Oka strain)
[2] = target: thymidine kinase deficient VZV mutant strain (07-1); assay: Anti-VZV activity (thymidine kinase deficient mutant strain 07-1); type: cell-based, varicella zoster virus

melting point: 226 to 228 °C
Compound: C#CCn1ccc(=O)n(CC(=O)Nc2ccc(Oc3ccccc3)cc2)c1=O

melting point: 193 to 194 °C
Compound: Cc1ccc(Cn2ccc(=O)n(CC(=O)Nc3ccc(Oc4ccccc4)cc3)c2=O)cc1

melting point: 154 to 155 °C
Compound: O=C(Cn1c(=O)ccn(CCOc2ccccc2)c1=O)Nc1ccc(Oc2ccccc2)cc1

The next lines start with the compound.

Compound: O=C(Cn1c(=O)ccn(CC=Cc2ccccc2)c1=O)Nc1ccc(Oc2ccccc2)cc1
melting point: 184 to 185 °C

Compound: O=C(Cn1c(=O)ccn(Cc2ccccc2)c1=O)Nc1ccc(Oc2ccccc2)cc1 [Compound 4, 2-(3-Benzyl-2,6-dioxo-3,6-dihydropyrimidin-1(2H)-yl)-N-(4-phenoxyphenyl)acetamides]
EC50 ([1]; one range printed for both compounds and both strains): 3.06 to 8.9 µM | EC50 (VZV (Oka strain); HEL cell culture, Oka strain): 8.18 µM | EC50 ([2]; strain 07-1, resistant to acyclovir and brivudine, read-out: EC50, thymidine kinase deficient VZV mutant strain (07-1)): 6.68 µM

Compound: Cc1cc(C)cc(Cn2ccc(=O)n(CC(=O)Nc3ccc(Oc4ccccc4)cc3)c2=O)c1 [Compound 6, 2-[3-(3,5-Dimethylbenzyl)-2,6-dioxo-3,6-dihydropyrimidin-1(2H)-yl]-N-(4-phenoxyphenyl)acetamide]
EC50 ([1]; Human betaherpesvirus 5, AD169, one range printed for both compounds and both strains): 3.06 to 8.9 µM | EC50 (VZV (Oka strain); Human alphaherpesvirus 3, HEL): 17 µM | EC50 ([2]; Human alphaherpesvirus 3, read-out: EC50, thymidine kinase deficient VZV mutant strain (07-1)): 16.1 µM | melting point: 99 to 101 °C

Compound: O=c1[nH]c(=O)n([C@H]2C[C@H](O)[C@@H](CO)O2)cc1/C=C/Br [brivudine, reference compound]
EC50 (VZV (Oka strain); Human alphaherpesvirus 3, HEL): 0.026 µM
